# Test results taken from US10815505B2, “Microbial oil extracted from stramenopiles” (priority 2009, dated 2020).
# “And” between values parts separate entries of the source, which are not always exact repeats. Equal entries are not always repeated. Where two headings read alike, the source gives them in different places.
# Legend:
# [1] = system: T. aureum-derived Δ5 desaturase; format: cell-based, Thraustochytrium aureum; conditions: S. cerevisiae expressing TauΔ5des, (product × 100)/(substrate + product)
# Method: In order to verify that the acquired gene was Δ5 desaturase, overexpression experiment was conducted using a budding yeast S. cerevisiae as a host. First, the acquired gene was incorporated at the EcoRI/XhoI site of a yeast vector pYES2/CT (Invitrogen) to construct an expression vectorpYΔ5des. The constructed expression vector pY5Δdes was then introduced into S. cerevisiae, and GC analysis was performed after extracting and methylating the transfectant fatty acids obtained by using the lithium acetate technique. A gas chromatograph GC-2014 (Shimadzu Corporation) was used for the GC analysis, which was performed under the following conditions. Column: HR-SS-10 (30 m×0.25 mm; Shinwa Chemical Industries Ltd.), column temperature: 150° C.→(5° C./min)→220° C. (10 min), carrier gas: He (1.3 mL/min). GC-17A and GCMS-QP-5000 (Shimadzu Corporation) were used for GC-MS analysis, which was performed using a DB-1 capillary column (0.25 mmi.d.×30 m, film thickness 0.25 μm; Agilent) under the following conditions: column temperature 160° C.→(4° C./min)→260° C., injector port temperature 250° C. For peaks that caused troubles in the analyses, the fatty acids were analyzed after picolinyl esterification, using the same apparatuses and columns under the temperature condition 240° C.→(2.5° C./min)→260° C. (15 min)→(2.5° C./min)→280° C.
# [2] = system: Saccharomyces cerevisiae (pYES2/CT, mock); experiment: Mock (pYES2/CT) introduced yeast, GC analysis of fatty acids; format: cell-based; conditions: 100 × product/(product + substrate)
# Method: By using a plasmid containing the full length of the P. pyriformis-derived Δ12 desaturase gene as a template, a PCR was performed with primers Pry-F (SEQ ID NO: 60 in the Sequence Listing) and Pyr-R (SEQ ID NO: 61 in the Sequence Listing), using a PrimeSTAR GC polymerase kit (Takara Bio). The PCR added a HindIII restriction enzyme site and an XbaI restriction enzyme site at the both ends. The amplified fragments were incorporated in a pGEM-T-Easy vector (Promega), and sequence analysis was performed. […] As a result, a Δ12 desaturase gene expression vector pYpΔ12Des was constructed. […] For peaks that caused troubles in the analyses, the fatty acids were analyzed after picolinyl esterification, using the same apparatuses and columns under the temperature condition 240° C.→(2.5° C./min)→260° C. […]
# In order to verify that the Δ12 desaturase was encoded by the acquired gene, an expression vector was constructed, and an expression experiment was conducted using a budding yeast S. cerevisiae (Invitrogen) as a host. […] The conversion efficiency from oleic acid to linoleic acid was 23.5±1.23%, as calculated according to the following equation. […]
# [3] = system: A. limacinum transfectants; experiment: G418 resistance on PDA agar plate, ub-Neo^r transfectants; format: cell-based, Aurantiochytrium limacinum mh0186
# Method: (§1) The transfectants were cultured in 0.5 mg/ml G418-containing GY liquid medium. The wild-type strain was cultured in GY liquid medium containing no G418. The culture fluids of these strains were spotted in 10-μl portions on PDA agar plate media containing G418 (0, 0.2, 0.5, 1, 2, 4 mg/ml), and growth on the agar plate media was observed after culturing the cells at 25° C. for 2 days. It was found as a result that the proliferation was inhibited at 0.2 mg/ml G418 in the wild-type strain, whereas the transfectants proliferated even in the presence of 4 mg/ml G418 (FIG. 13A). Further, there was no change in G418 resistance, and proliferation was observed even at a G418 concentration of 32 mg/ml in a similar experiment conducted with PDA agar plate media containing G418 (0, 2, 4, 8, 16, 32 mg/ml) after subculturing the transfectants five times in a GY liquid medium containing no G418 (FIG. 13B).
# [4] = system: A. limacinum wild-type strain; experiment: G418 resistance on PDA agar plate, wild-type strain; format: cell-based, Aurantiochytrium limacinum mh0186; conditions: 25° C., 2 days
# Method: as §1
# [5] = system: Thraustochytrium aureum-derived Δ5 desaturase; experiment: Fatty acid composition of Δ5 desaturase-introduced Aurantiochytrium sp. mh0186 (mhΔ5neo^r), GC analysis; format: cell-based; conditions: host mh0186; 0.1 mM ETA (to EPA) or DGLA (to AA) in medium
# Method: The transformed clone obtained in Example 6, (3), v. was cultured for 3 days, and mhneo^r and mhΔ5neo^r were analyzed by GC analysis after extracting the fatty acid methyl ester. Separately, 0.1 mM ETA or DGLA, exogenous fatty acids used as a substrate by Δ5 desaturase, was added to medium for incorporation into Labyrinthula, and GC analysis was performed after extracting the fatty acids as in the overexpression experiment using yeast. A gas chromatograph GC-2014 (Shimadzu Corporation) was used for the GC analysis, which was performed under the following conditions. Column: HR-SS-10 (30 m×0.25 mm; Shinwa Chemical Industries Ltd.), column temperature: 150° C.→(5° C./min)→220° C. (10 min), carrier gas: He (1.3 mL/min).
# ETA or DGLA used as a substrate by Δ5 desaturase was also added to medium at 0.1 mM for incorporation into Labyrinthula. As a result, the precursor substances converted into EPA and AA in Labyrinthula, and the content increased, as observed in the Δ5 desaturase expression experiment using yeast (Tables 9 and 10). […] This experiment was repeated in three or more confirmatory experiments to confirm reproducibility. All experiments produced the same results.
compound,measurement,setting,value
Eicosatrienoic acid [C20:3n-3 Eicosatrienoic acid],Percentage of substrate converted (%),[1],0.0%
CCCCCC/C=C\CCCCCCCC(=O)O [16:1^Δ9],Conversion efficiency (%),[2],0%
Eicosadienoic acid [C20:2n-6 Eicosadienoic acid],Percentage of substrate converted (%),[1],0.0%
"CCCCC/C=C\C/C=C\CCCCCCCC(=O)O [18:2^Δ9,12, linoleic acid]",Percentage of substrate converted (%),[1],0.0%
CN[C@@H]1[C@@H](O)[C@@H](O[C@@H]2[C@@H](O)[C@H](O[C@H]3O[C@H]([C@@H](C)O)[C@@H](O)[C@H](O)[C@H]3N)[C@@H](N)C[C@H]2N)OC[C@]1(C)O [G418],G418 concentration at which proliferation was still observed,"[3]; PDA agar plate, 25° C., 2 days, highest tested 4 mg/ml",4 mg/mL
same,G418 concentration at which proliferation was still observed,"[3]; after subculturing five times without G418, highest tested 32 mg/ml",32 mg/mL
same,G418 concentration at which proliferation was inhibited,[4],0.2 mg/mL
"CC/C=C\C/C=C\C/C=C\CCCCCCCC(=O)O [18:3^Δ9,12,15, α-linolenic acid]",Percentage of substrate converted (%),[1],0.0%
"CCCCC/C=C\C/C=C\C/C=C\CCCCCCC(=O)O [DGLA, dihomo-γ-linolenic acid]",Conversion efficiency of the precursor substance in Labyrinthula,[5],63% and 62.9%
same,Percentage of substrate converted (%),[1],27%
same,Percentage of substrate converted (%),[1]; listed as C20:3n-6 Dihomo-g-linolenic acid (DGLA),27.0%
eicosatetraenoic acid [ETA],Conversion efficiency of the precursor substance in Labyrinthula,[5],75% and 75.2%
same,Percentage of substrate converted (%),[1],32%
same,Percentage of substrate converted (%),[1]; listed as C20:4n-3 Eicosatetraenoic acid (ETA),32.0%
